This is an account of results in patent US9586951B2 (FUJIFILM Corporation, priority 2013, dated 2017).

For one test, the target named is T1, ATM (Homo sapiens, UniProt Q13315).
T1 construct: detecting phosphorylation of Chk2 in a human non-small cell lung cancer cell line NCI-H460 (ATCC company); host or cells: NCI-H460 human non-small cell lung cancer cells
In words: ATM inhibition test (phosphorylation of Chk2 generated by ionizing radiation, AlphaScreen SureFire). It is filed as cell-based. The conditions noted are these: phosphorylated Chk2 in NCI-H460 cells, ionizing radiation 8Gy, 1 hour after test compound treatment; read-out: ATM inhibitory activity. In outline:
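NCI-H460 cells, compound 1 h pre-treatment, 8Gy IR, further 1 h at 37° C in 5% CO2. Read-out: phospho-Chk2 via AlphaScreen SureFire. % inhibition relative to IR-induced signal window (irradiated vs non-irradiated drug-free wells).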

The subject of test [1] is human non-small cell lung cancer cell line NCI-H460. Kind of test: Cell proliferation inhibition test by sensitivity-enhancing to ionizing radiation (Cell Titer Glo). The format is cell-based. Particulars: Homo sapiens, NCI-H460, 120 h, concentration in which SER became 2; NCI-H460 cells, ionizing radiation 2 Gy, cultured 120 hour. On the procedure: A human non-small cell lung cancer cell line NCI-H460 (ATCC company) was adjusted so as to be 2×10^3 cells/mL in a RPMI-1640 medium containing penicillin/streptomycin and FBS having a final concentration of 10%, and this was seeded by 100 μL per well in 96-well CellBIND® plates (Corning International Inc.). After 24 hours, the medium of cells was replaced with 100 μL of a medium including serially diluted liquid of the test compound or DMSO having a final concentration of 0.1%. 30 minutes after the medium was replaced, half of the plates were irradiated with ionizing radiation 2 Gy (Faxitron Bioptics, LLC, RX-650 type). The cells of the plates irradiated with ionizing radiation and the plates not being irradiated with ionizing radiation were cultured at 37° C. for 120 hour in 5% CO2. After a Cell Titer Glo reaction liquid of an equal volume was added to each well, the amount of luminescence was measured, according to the instruction book of Cell Titer Glo (Promega Corporation). Since the amount of luminescence is proportional to the ATP concentration in cells, the amount of luminescence was used as an indicator of the number of viable cells. Sensitivity-enhancing effects (SER) to ionizing radiation by the test compound was calculated by the following equation. SER=(amount of luminescence of wells including DMSO having a final concentration of 0.1% in the plates irradiated with ionizing radiation×amount of luminescence of wells including a compound in the plates not being irradiated with ionizing radiation)/(amount of luminescence of wells including the test compound in the plates irradiated with ionizing radiation×amount of luminescence of wells including DMSO having a final concentration of 0.1% in the plates not being irradiated with ionizing radiation)
SER at each compound concentration was plotted by nonlinear regression fit (FitModel (205)) by a sigmoidal dose-response equation using XLfit software (IDBS), and the concentration (SER2) in which SER became 2 was calculated.

T1 sequence (Q13315 whole entry): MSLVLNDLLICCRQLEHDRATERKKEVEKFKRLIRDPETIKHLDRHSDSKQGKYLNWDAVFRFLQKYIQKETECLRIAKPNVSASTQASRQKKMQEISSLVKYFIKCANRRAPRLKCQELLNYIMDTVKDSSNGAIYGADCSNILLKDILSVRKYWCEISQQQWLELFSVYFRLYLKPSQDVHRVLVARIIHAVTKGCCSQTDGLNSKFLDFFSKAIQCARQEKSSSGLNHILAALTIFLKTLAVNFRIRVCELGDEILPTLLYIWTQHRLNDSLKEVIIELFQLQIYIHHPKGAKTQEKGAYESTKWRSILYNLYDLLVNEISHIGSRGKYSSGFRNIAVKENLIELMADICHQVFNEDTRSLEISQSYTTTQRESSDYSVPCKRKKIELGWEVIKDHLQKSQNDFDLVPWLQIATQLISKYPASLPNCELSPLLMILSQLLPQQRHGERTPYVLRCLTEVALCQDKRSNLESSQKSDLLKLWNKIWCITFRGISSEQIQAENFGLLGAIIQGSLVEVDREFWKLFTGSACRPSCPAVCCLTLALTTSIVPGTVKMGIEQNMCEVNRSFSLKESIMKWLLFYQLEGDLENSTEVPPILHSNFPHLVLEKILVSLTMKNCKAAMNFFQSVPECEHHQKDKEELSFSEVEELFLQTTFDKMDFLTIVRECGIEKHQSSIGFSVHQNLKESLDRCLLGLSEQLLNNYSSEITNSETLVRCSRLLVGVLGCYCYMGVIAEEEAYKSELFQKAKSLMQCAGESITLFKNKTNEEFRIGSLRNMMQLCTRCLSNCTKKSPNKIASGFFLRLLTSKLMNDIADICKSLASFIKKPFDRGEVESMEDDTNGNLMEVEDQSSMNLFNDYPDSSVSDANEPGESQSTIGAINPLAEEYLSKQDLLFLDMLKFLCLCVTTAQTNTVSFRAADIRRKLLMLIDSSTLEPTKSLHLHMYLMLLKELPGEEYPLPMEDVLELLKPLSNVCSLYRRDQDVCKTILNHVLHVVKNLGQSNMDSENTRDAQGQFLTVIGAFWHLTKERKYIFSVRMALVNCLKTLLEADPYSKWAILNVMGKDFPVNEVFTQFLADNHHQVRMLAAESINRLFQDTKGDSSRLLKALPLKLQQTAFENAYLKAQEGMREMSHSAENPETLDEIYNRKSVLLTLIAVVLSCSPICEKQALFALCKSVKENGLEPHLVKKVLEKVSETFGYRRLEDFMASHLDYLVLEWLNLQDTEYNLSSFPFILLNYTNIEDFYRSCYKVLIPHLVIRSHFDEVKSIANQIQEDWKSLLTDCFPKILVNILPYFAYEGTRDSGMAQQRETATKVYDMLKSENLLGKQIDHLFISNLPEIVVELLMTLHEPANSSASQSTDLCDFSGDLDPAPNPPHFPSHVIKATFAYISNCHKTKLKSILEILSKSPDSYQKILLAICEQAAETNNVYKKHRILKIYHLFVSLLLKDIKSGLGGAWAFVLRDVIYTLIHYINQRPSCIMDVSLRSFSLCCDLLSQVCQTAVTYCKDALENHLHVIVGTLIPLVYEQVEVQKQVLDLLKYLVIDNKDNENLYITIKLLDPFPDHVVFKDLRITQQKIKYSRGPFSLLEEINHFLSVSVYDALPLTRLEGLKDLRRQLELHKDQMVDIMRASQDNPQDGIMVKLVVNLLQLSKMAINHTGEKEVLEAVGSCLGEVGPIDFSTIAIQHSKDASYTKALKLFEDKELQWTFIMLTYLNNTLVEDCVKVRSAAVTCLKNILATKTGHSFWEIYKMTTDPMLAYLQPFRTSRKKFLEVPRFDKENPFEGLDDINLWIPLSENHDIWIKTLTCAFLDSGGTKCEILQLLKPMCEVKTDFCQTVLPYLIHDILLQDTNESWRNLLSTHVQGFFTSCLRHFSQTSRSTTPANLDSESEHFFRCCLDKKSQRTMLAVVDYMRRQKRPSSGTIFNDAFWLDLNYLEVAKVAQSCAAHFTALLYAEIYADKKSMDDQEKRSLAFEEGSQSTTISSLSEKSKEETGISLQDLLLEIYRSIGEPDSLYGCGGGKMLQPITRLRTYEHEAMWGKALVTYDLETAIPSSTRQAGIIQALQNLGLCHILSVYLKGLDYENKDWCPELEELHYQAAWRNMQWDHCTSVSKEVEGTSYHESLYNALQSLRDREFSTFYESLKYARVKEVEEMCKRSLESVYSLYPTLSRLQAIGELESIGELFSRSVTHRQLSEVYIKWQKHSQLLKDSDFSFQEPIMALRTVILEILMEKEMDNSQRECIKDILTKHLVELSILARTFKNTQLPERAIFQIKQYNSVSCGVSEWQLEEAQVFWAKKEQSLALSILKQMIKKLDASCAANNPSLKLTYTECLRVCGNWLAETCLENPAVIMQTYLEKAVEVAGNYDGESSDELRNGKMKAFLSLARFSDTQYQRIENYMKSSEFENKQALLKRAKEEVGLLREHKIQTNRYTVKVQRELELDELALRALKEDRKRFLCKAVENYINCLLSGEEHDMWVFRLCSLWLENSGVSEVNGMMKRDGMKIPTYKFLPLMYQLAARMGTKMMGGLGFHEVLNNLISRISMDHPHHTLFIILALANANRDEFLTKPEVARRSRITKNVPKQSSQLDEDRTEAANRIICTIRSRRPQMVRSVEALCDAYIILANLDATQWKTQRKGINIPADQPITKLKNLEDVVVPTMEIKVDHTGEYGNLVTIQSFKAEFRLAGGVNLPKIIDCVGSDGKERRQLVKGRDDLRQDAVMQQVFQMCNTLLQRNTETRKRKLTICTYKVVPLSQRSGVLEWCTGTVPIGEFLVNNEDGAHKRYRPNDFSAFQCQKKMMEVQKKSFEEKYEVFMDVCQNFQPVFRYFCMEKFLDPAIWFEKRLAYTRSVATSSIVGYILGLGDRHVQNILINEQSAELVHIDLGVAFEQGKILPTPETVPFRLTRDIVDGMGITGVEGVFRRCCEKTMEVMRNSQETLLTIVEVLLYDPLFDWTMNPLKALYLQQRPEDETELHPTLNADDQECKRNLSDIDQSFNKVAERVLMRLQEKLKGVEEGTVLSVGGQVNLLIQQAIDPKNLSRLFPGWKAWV

As to `Cc1cnc(C(C)Nc2ccc3c(c2)Sc2cccc(-c4cc(N5CCOCC5)cc(=O)[nH]4)c2S3)nc1` (centres unmarked) [Example 1-12-70, 6-(7-((1-(5-Methylpyrimidin-2-yl)ethyl)amino)thianthren-1-yl)-4-morpholino pyridin-2(1H)-one], the IC50 at ATM was below 100 nM. Moreover, the SER2 (concentration at which the radiation sensitivity-enhancement ratio reaches 2) in test [1] was below 100 nM.
Consider `Cc1ccc(C(Nc2ccc3c(c2)Sc2cccc(-c4cc(N5CCOCC5)cc(=O)[nH]4)c2S3)[C@H]2CN(CCN(C)C)CCO2)nc1` (single isomer, unassigned) [Example 10-2], for which, on ATM, the IC50 was below 100 nM. Further, the SER2 (concentration at which the radiation sensitivity-enhancement ratio reaches 2) in test [1] was below 100 nM.
Take `COCC(Nc1ccc2c(c1)Sc1cccc(-c3cc(N4CCOCC4)cc(=O)[nH]3)c1S2)c1ncc(C)cn1` (centres unmarked) [Example 1-12-96, 6-(7-((2-Methoxy-1-(5-methylpyrimidin-2-yl)ethyl)amino)thianthren-1-yl)-4-morpholino pyridin-2(1H)-one]: the IC50 at ATM is below 100 nM. Also, the SER2 (concentration at which the radiation sensitivity-enhancement ratio reaches 2) in test [1] lay in the range of 100 to 500 nM.
With `CC(CN1CCN(C)CC1)Nc1ccc2c(c1)Sc1cccc(-c3cc(N4CCOCC4)cc(=O)[nH]3)c1S2` (racemic) [Example 1-13-3-1, 6-(7-((1-(4-Methylpiperazin-1-yl)propan-2-yl)amino)thianthren-1-yl)-4-morpholinopyridin-2(1H)-one], at ATM, the IC50 was below 100 nM. The SER2 (concentration at which the radiation sensitivity-enhancement ratio reaches 2) in test [1] was in the range of 100 to 500 nM.
Regarding `O=c1cc(N2CCOCC2)cc(-c2cccc3c2Sc2ccc(N[C@@H]4CCCC[C@H]4N4CCOCC4)cc2S3)[nH]1` [Example 1-48-1, 4-Morpholino-6-(7-(((1R,2R)-2-morpholinocyclohexyl)amino)thianthren-1-yl)pyridin-2(1H)-one], on ATM, the IC50 was below 100 nM. Further, in test [1], the SER2 (concentration at which the radiation sensitivity-enhancement ratio reaches 2) was in the range of 100 to 500 nM.
As for `Cc1ccnc(CNc2ccc3c(c2)Sc2cccc(-c4cc(N5CCOCC5)cc(=O)[nH]4)c2S3)c1` [Example 1-12-5, 6-(7-(((4-Methylpyridin-2-yl)methyl)amino)thianthren-1-yl)-4-morpholino pyridin-2 (1H)-one], at ATM, the IC50 is below 100 nM. Also, the SER2 (concentration at which the radiation sensitivity-enhancement ratio reaches 2) in test [1] was 100 to 500 nM.
In the same order, the values of `O=c1cc(N2CCOCC2)cc(-c2cccc3c2Oc2ccc(NCc4ccc(Cl)nc4)cc2C3)[nH]1` [Example 2-2-3] are 100 to 500 nM and 100 to 500 nM.
With `Cc1cccc(CNc2ccc3c(c2)Cc2ccc(F)c(-c4cc(N5CCOCC5)cc(=O)[nH]4)c2O3)n1` [Example 2-46-4, 6-(3-Fluoro-7-(((6-methylpyridin-2-yl)methyl)amino)-9H-xanthen-4-yl)-4-morpholinopyridin-2(1H)-one], the IC50 at ATM is below 100 nM. For the same compound, the SER2 (concentration at which the radiation sensitivity-enhancement ratio reaches 2) in test [1] is 100 to 500 nM.
In the same order, the values of `Cc1cccc(C(CO)Nc2ccc3c(c2)Cc2cccc(-c4cc(N5CCOCC5)cc(=O)[nH]4)c2O3)n1` (single isomer, unassigned) [Example 2-14-92-2, 6-(7-((2-hydroxy-1-(6-methylpyridin-2-yl)ethyl)amino)-9H-xanthen-4-yl)-4-morpholinopyridin-2(1H)-one] are 100 to 500 nM and below 100 nM.
On to `CC(Nc1ccc2c(c1)Cc1cccc(-c3cc(N4CCOCC4)cc(=O)[nH]3)c1O2)c1nccc(CF)n1` (single isomer, unassigned) [Example 2-14-94-1, 6-(7-((1-(4-(fluoromethyl)pyrimidin-2-yl)ethyl)amino)-9H-xanthen-4-yl)-4-morpholinopyridin-2(1H)-one], for which, at ATM, the IC50 was below 100 nM. Also, in test [1], the SER2 (concentration at which the radiation sensitivity-enhancement ratio reaches 2) was below 100 nM.
Consider `CC(CNc1ccc2c(c1)Sc1cccc(-c3cc(N4CCOCC4)cc(=O)[nH]3)c1S2)N1CCOCC1` (racemic) [Example 1-9-2-1, 4-Morpholino-6-(7-((2-morpholinopropyl)amino)thianthren-1-yl)pyridin-2(1H)-one], for which the IC50 at ATM was below 100 nM. In addition, the SER2 (concentration at which the radiation sensitivity-enhancement ratio reaches 2) in test [1] lay within 100 to 500 nM.
On the same counts, the results for `O=c1cc(N2CCOCC2)cc(-c2cccc3c2Sc2ccc(NC4CCN(C5CC5)CC4)cc2S3)[nH]1` [Example 1-24-18, 6-(7-((1-Cyclopropylpiperidin-4-yl)amino)thianthren-1-yl)-4-morpholino pyridin-2(1H)-one] are below 100 nM and 100 to 500 nM.
`COc1ccnc(CNc2ccc3c(c2)Sc2cccc(-c4cc(N5CCOCC5)cc(=O)[nH]4)c2O3)c1` [Example 4-8-8, 6-(8-(((4-Methoxypyridin-2-yl)methyl)amino)phenoxathiin-4-yl)-4-morpholino pyridin-2 (1H)-one]: the IC50 at ATM is below 100 nM. The SER2 (concentration at which the radiation sensitivity-enhancement ratio reaches 2) in test [1] was 100 to 500 nM.
For `Cc1ccc(C(CCCN(C)C)Nc2ccc3c(c2)Sc2cccc(-c4cc(N5CCOCC5)cc(=O)[nH]4)c2S3)nc1` (centres unmarked) [Example 1-50-7, 6-(7-((4-(Dimethylamino)-1-(5-methylpyridin-2-yl)butyl)amino)thianthren-1-yl)-4-morpholino pyridin-2(1H)-one], at ATM, the IC50 was below 100 nM. The SER2 (concentration at which the radiation sensitivity-enhancement ratio reaches 2) in test [1] is 100 to 500 nM.
For `O=c1cc(N2CCOCC2)cc(-c2cccc3c2Oc2ccc(NCc4ccc(Cl)s4)cc2C3)[nH]1` [Example 2-13-7, 6-(7-(((5-Chlorothiophen-2-yl)methyl)amino)-9H-xanthen-4-yl)-4-morpholino pyridin-2(1H)-one], on ATM, the IC50 was below 100 nM. Moreover, the SER2 (concentration at which the radiation sensitivity-enhancement ratio reaches 2) in test [1] was in the range of 500 to 2000 nM.
For the compound `CNc1ncc(CNc2ccc3c(c2)Sc2cccc(-c4cc(N5CCOCC5)cc(=O)[nH]4)c2S3)cn1` [Example 1-12-46, 6-(7-(((2-(Methylamino)pyrimidin-5-yl)methyl)amino)thianthren-1-yl)-4-morpholino pyridin-2(1H)-one], at ATM, the IC50 was below 100 nM. Moreover, in test [1], the SER2 (concentration at which the radiation sensitivity-enhancement ratio reaches 2) lay in the range of 100 to 500 nM.
On to `COCC(CN1CCOCC1)Nc1ccc2c(c1)Sc1cccc(-c3cc(N4CCOCC4)cc(=O)[nH]3)c1S2` (racemic) [Example 1-17-1-1, 6-(7-((1-Methoxy-3-morpholinopropan-2-yl)amino)thianthren-1-yl)-4-morpholinopyridin-2(1H)-one], for which, at ATM, the IC50 was below 100 nM. Moreover, the SER2 (concentration at which the radiation sensitivity-enhancement ratio reaches 2) in test [1] was below 100 nM.
Regarding `Cc1cnc(C(CCN(C)C)Nc2ccc3c(c2)Sc2cccc(-c4cc(N5CCOCC5)cc(=O)[nH]4)c2S3)cn1` (centres unmarked) [Example 1-22-2, 6-(7-((3-(Dimethylamino)-1-(5-methylpyrazin-2-yl)propyl)amino)thianthren-1-yl)-4-morpholino pyridin-2 (1H)-one], at ATM, the IC50 is below 100 nM. In addition, the SER2 (concentration at which the radiation sensitivity-enhancement ratio reaches 2) in test [1] is 100 to 500 nM.
With `COCCCC(Nc1ccc2c(c1)Sc1cccc(-c3cc(N4CCOCC4)cc(=O)[nH]3)c1S2)c1ccc(C)cn1` (centres unmarked) [Example 1-12-130, 6-(7-((4-Methoxy-1-(5-methylpyridin-2-yl)butyl)amino)thianthren-1-yl)-4-morpholino pyridin-2(1H)-one], the IC50 on ATM is below 100 nM. In addition, the SER2 (concentration at which the radiation sensitivity-enhancement ratio reaches 2) in test [1] lay within 100 to 500 nM.
In the same order, the values of `Cc1ccc(C2(Nc3ccc4c(c3)Sc3cccc(-c5cc(N6CCOCC6)cc(=O)[nH]5)c3S4)CC2)nc1` [Example 1-50-5, 6-(7-((1-(5-Methylpyridin-2-yl)cyclopropyl)amino)thianthren-1-yl)-4-morpholino pyridin-2(1H)-one] are below 100 nM and 100 to 500 nM.
`N#Cc1ccnc(CNc2ccc3c(c2)Cc2cccc(-c4cc(N5CCOCC5)cc(=O)[nH]4)c2O3)c1` [Example 2-14-11, 2-(((5-(4-Morpholino-6-oxo-1,6-dihydropyridin-2-yl)-9H-xanthen-2-yl)amino)methyl) isonicotinonitrile]: at ATM, the IC50 is below 100 nM. Besides, the SER2 (concentration at which the radiation sensitivity-enhancement ratio reaches 2) in test [1] was in the range of 100 to 500 nM.
As for `O=c1cc(N2CCOCC2)cc(-c2cccc3c2Sc2ccc(NC4CCCC4N4CCOCC4)cc2S3)[nH]1` (racemic) [Example 1-16-1-1, 4-morpholino-6-(7-((2-morpholinocyclopentyl)amino)thianthren-1-yl)pyridin-2(1H)-one], the IC50 at ATM was below 100 nM. Besides, in test [1], the SER2 (concentration at which the radiation sensitivity-enhancement ratio reaches 2) is below 100 nM.
